Assay results reported in patent US6074864A, “Cloned DNA for synthesizing unique glucocerebrosidase” (The United States of America as represented by the …, priority 1994, dated 2000).

Target: T1, recombinant human glucocerebrosidase produced in baculovirus/SF9 system, enzyme in the culture media (Homo sapiens, UniProt P04062)
T1 construct: made in house; host or cells: Spodoptera frugiperda SF9 cells infected with recombinant baculovirus (AcNPV, pAc373/GC)
T1 sequence (P04062 40-536): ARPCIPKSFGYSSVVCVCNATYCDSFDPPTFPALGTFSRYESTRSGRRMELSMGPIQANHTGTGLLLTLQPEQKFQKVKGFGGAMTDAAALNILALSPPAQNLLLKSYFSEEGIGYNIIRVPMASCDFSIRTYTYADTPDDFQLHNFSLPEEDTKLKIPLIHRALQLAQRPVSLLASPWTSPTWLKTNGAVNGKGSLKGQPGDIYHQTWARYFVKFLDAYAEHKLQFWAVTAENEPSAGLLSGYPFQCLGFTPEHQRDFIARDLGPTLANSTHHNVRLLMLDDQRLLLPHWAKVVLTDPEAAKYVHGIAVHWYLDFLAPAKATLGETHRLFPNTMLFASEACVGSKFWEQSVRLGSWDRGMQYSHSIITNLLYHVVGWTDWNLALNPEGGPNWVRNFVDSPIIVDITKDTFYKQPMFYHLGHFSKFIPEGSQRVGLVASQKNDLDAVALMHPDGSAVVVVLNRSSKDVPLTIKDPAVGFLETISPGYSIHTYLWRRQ
Assay: Km determination, β-glucosidase activity with 4MUGP
Format: biochemical
Conditions: pH 5.9, 100 mM potassium phosphate, 0.15% Triton X-100, 0.125% sodium taurocholate
Procedure: Glucocerebrosidase assays: For pH profile and inhibition studies, glucocerebrosidase activity was measured using 100 mM potassium phosphate buffer containing 0.15% Triton X-100, 2.5 μl of β-D-[1-^14 C] glucocerebroside (7.5 mg/ml in sodium taurocholate at 50 mg/ml), and the sample in the total volume of 200 ul. Preincubations with conduritol-B-epoxide were for 30 min at 37° C. […] Purification of recombinant glucocerebrosidase was also monitored using 4MUGP.

In the case of `Cc1cc(=O)oc2cc(O[C@@H]3O[C@H](CO)[C@@H](O)[C@H](O)[C@H]3O)ccc12` [4MUGP, 4-methylumbellifery-β-D-glucopyranoside], the Km is reported as 3.3 mM.
